Test results: ChEMBL document CHEMBL1138708, “Synthesis of analogs of (1,4)-3- and 5-imino oxazepane, thiazepane, and diazepane as inhibitors of nitric oxide synthases” (Bioorg Med Chem Lett, 2004)

Key:
[1] = molecular target: Nitric oxide synthase (inducible and endothelial) (Homo sapiens) (UniProt P35228+P29474); test: Ratio of inhibitory concentration against Endothelial nitric oxide synthase to Inducible nitric oxide synthase; type: protein assay
Nitric oxide synthase 1 = Nitric oxide synthase 1 (Homo sapiens, UniProt P29475); test: Inhibitory concentration against Neuronal nitric oxide synthase
[2] = molecular target: Nitric oxide synthase, inducible (Homo sapiens, UniProt P35228); test: Inhibitory concentration against Inducible nitric oxide synthase
Nitric oxide synthase 3 = molecular target: T1, Nitric oxide synthase 3 (Homo sapiens, UniProt P29474); test: Inhibitory concentration against Endothelial nitric oxide synthase
T1 sequence (P29474 whole entry): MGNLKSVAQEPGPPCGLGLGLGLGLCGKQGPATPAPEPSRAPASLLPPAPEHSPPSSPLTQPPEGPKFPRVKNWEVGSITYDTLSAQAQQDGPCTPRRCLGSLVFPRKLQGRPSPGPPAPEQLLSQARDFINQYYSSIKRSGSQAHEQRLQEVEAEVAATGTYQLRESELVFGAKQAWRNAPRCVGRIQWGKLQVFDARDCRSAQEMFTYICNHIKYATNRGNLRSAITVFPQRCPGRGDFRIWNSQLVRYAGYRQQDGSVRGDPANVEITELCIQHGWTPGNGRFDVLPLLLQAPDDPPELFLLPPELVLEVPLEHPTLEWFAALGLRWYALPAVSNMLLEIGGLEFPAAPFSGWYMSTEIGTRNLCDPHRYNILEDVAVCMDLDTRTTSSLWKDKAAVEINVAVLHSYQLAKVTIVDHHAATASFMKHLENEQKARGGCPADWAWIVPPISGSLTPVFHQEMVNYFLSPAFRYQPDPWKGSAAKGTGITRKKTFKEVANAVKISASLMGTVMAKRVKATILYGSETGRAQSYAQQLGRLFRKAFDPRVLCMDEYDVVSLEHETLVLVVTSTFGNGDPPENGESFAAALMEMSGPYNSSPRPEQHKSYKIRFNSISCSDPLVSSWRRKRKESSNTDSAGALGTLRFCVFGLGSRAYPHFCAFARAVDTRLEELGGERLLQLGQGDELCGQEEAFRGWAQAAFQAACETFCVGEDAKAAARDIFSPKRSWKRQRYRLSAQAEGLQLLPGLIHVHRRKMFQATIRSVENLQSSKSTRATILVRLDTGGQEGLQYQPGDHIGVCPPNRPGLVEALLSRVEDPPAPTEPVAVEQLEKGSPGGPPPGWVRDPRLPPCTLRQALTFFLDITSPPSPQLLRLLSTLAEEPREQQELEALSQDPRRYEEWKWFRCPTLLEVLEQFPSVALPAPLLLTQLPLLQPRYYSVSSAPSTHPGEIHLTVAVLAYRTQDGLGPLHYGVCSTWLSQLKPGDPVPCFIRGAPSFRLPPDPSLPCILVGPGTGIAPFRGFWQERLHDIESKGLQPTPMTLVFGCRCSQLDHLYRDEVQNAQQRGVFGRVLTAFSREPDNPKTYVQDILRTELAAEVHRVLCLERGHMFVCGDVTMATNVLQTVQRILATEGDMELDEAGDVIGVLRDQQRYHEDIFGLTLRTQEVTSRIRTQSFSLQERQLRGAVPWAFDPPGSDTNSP

Nitric oxide synthase, inducible, sequence (P35228 whole entry): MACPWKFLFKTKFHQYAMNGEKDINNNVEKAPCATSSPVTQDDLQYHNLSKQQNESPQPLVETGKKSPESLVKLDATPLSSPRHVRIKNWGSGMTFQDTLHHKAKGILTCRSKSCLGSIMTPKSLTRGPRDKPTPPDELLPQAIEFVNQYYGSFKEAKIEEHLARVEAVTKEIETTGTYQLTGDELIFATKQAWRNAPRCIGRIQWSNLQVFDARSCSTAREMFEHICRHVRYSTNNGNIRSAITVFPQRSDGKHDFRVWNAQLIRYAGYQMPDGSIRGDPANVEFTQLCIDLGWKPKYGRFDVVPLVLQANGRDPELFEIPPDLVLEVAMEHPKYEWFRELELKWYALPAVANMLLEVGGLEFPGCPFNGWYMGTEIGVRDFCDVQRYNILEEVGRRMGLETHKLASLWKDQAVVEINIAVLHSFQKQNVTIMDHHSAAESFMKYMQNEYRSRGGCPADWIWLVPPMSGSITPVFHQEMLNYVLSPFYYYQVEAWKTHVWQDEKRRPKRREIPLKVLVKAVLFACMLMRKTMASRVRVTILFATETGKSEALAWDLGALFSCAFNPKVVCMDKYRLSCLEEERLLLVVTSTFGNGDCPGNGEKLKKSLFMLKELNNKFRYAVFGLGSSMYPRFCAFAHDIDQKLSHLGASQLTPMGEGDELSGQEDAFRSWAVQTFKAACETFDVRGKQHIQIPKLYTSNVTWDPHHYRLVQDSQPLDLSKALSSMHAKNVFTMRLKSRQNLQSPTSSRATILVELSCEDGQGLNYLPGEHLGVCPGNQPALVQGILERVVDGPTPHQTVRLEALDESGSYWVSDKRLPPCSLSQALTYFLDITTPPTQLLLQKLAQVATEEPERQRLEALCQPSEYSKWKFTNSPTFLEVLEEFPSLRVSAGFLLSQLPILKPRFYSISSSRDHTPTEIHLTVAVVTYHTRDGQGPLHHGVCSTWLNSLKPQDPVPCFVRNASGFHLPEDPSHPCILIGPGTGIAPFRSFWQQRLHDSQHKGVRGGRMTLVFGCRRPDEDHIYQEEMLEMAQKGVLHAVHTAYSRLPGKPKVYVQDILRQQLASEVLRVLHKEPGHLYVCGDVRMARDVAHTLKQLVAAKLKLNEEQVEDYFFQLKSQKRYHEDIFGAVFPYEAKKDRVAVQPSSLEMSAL
Nitric oxide synthase 1, sequence (P29475 whole entry): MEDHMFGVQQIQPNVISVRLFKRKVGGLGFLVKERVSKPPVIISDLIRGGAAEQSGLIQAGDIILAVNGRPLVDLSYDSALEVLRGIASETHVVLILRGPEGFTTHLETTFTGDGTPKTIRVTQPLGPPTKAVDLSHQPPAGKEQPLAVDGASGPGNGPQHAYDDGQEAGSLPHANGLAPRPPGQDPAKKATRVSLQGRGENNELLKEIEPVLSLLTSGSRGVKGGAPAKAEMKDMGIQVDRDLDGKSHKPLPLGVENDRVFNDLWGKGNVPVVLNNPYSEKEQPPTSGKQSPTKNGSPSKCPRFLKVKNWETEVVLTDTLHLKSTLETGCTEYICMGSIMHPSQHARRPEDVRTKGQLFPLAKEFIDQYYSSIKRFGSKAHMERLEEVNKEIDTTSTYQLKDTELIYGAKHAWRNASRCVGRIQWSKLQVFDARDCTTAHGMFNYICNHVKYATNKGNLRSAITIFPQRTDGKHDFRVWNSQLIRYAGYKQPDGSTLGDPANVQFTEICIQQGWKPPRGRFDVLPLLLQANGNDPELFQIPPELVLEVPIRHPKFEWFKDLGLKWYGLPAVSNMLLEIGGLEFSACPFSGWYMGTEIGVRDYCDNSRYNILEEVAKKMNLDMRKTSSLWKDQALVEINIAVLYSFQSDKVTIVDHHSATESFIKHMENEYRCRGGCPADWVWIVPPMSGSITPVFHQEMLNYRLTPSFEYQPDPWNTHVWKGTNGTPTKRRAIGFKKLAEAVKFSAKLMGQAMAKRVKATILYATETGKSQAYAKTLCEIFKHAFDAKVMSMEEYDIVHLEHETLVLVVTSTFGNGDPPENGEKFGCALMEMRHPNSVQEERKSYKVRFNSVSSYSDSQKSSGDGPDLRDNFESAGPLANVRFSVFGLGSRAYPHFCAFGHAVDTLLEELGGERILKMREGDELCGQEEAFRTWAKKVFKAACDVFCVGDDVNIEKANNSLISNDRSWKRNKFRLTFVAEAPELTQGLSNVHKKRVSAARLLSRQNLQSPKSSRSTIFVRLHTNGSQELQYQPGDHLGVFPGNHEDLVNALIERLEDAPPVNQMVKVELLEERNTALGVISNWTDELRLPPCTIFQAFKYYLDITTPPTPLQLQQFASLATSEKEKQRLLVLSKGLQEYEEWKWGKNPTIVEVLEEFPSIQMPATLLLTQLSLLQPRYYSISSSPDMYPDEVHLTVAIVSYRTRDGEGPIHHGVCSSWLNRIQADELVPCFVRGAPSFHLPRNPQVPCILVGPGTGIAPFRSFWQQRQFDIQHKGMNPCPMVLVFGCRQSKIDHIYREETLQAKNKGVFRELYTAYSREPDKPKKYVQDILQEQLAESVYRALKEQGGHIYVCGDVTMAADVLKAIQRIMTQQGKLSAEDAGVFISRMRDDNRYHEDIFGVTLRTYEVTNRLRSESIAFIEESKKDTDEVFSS

SMILES | Selectivity [1] | IC50 (Nitric oxide synthase 1) | IC50 [2] | IC50 (Nitric oxide synthase 3)
CCC[C@@H]1CSCCC(N)=N1 | 42 | – | – | –
CC(C)CC1CSCCC(N)=N1 (stereo not drawn) | 186 | 1900 nM | 320 nM | 60000 nM
NC1=NC(CO)CSCC1 (stereo not drawn) | 5.3 | 2700 nM | 1100 nM | 6000 nM
CCCCC1CSCCC(N)=N1 (stereo not drawn) | 164 | 1200 nM | 500 nM | 77000 nM
NC1=NCCOCC1 | 2.1 | 8700 nM | 11800 nM | 25000 nM
CCC[C@H]1CSCCC(N)=N1 | 5.2 | 440 nM | 190 nM | 1000 nM
NC1=NCCNCC1 | – | > 50000 nM | > 50000 nM | > 50000 nM
CC1CSCCC(N)=N1 (stereo not drawn) | 6.1 | 1800 nM | 810 nM | 5000 nM
NC1=NCCCSC1 | 8.8 | 2800 nM | 1200 nM | 10500 nM
CC1CC(N)=NCCS1 (stereo not drawn) | 1.6 | 1000 nM | 3000 nM | 5000 nM
CCCC1CSCCC(N)=N1 (stereo not drawn) | 172 | 2800 nM | 290 nM | 50000 nM
CC1CSCCN=C1N (stereo not drawn) | – | > 50000 nM | > 50000 nM | > 50000 nM

Continued, values first:

Selectivity [1] | IC50 (Nitric oxide synthase 1) | IC50 [2] | IC50 (Nitric oxide synthase 3) | SMILES
9.5 | 4300 nM | 1400 nM | 13400 nM | NC1=NCCSCC1
3.7 | 590 nM | 310 nM | 1100 nM | CCC1CSCCC(N)=N1 (stereo not drawn)
– | 7100 nM | 1200 nM | 50000 nM | CCC[C@@H]1CSCCC(=N)N1
3.7 | – | – | – | CC(=N)NCCCC[C@H](N)C(=O)O
– | > 50000 nM | > 50000 nM | > 50000 nM | CC1CC(N)=NC2CCCCC2S1 (stereo not drawn)
1.1 | 830 nM | 3500 nM | 4100 nM | CC1CN=C(N)CCS1 (stereo not drawn)
– | – | – | 450 nM | NC1=NCCCOC1
